The results in this text go back to ChEMBL document CHEMBL1137525, “Additional level of information about complex interaction between non-nucleoside inhibitor and HIV-1 reverse transcriptase using biosensor-based thermodynamic analysis” (Bioorg Med Chem, 2007).

SMILES strings stand for the structures.

In experiment [1] the target is T1, Human immunodeficiency virus type 1 reverse transcriptase (Human immunodeficiency virus 1, UniProt Q72547, K103N). Kind of experiment: Binding affinity to HIV1 reverse transcriptase K103N mutant at 35 degC.
Experiment [2] addresses T2, Human immunodeficiency virus type 1 reverse transcriptase (Human immunodeficiency virus 1, UniProt Q72547, Y181C). The experiment in a line: Binding affinity to HIV1 reverse transcriptase Y181C mutant at 5 degC.
Experiment [3] addresses T1, Human immunodeficiency virus type 1 reverse transcriptase. Kind of experiment: Binding affinity to HIV1 reverse transcriptase K103N mutant at 5 degC.
Experiment [4] has the same target. The experiment in a line: Binding affinity to HIV1 reverse transcriptase K103N mutant at 25 degC.
For experiment [5] the target is unchanged. Kind of experiment: Binding affinity to HIV1 reverse transcriptase K103N mutant at 15 degC.
Experiment [6] concerns the target T2, Human immunodeficiency virus type 1 reverse transcriptase. The experiment in a line: Binding affinity to HIV1 reverse transcriptase Y181C mutant at 15 degC.
Experiment [7] has the same target. Kind of experiment: Binding affinity to HIV1 reverse transcriptase Y181C mutant at 25 degC.
Experiment [8] shares this target. The experiment in a line: Binding affinity to HIV1 reverse transcriptase Y181C mutant at 35 degC.

For the compound `CCC(=O)c1ccc(F)c([C@@H]2C[C@@H]2NC(=O)Nc2ccc(C#N)cn2)c1O`, the Kd (commonly the free concentration of one partner at which half of the binding sites on the other are occupied at equilibrium, for simple one-to-one binding) was found to be 3.49 nM in experiment [1]; 0.627 nM in experiment [2]; 0.596 nM in experiment [3]; 4.91 nM in experiment [4]; 0.997 nM in experiment [5]; 0.79 nM in experiment [6]. Besides, the figures for the Kd in experiment [7] and in experiment [8] were 1.5 nM and 2.89 nM, respectively.
